Laboratory results reported in the NIST ThermoML archive (doi:10.1016/j.tca.2015.06.017).

Assay: xn = mol fraction of the nth substance listed
Conditions: Liquid, Vibrating tube method

CCC(C)Cl (stereo unspecified) [2-chlorobutane] + CCCCCCC
mass density [kg/m3]
Conditions	303.15 K	313.15 K
100 kPa, x2 = 0.0524	847.91	836.56
100 kPa, x2 = 0.1018	835.49	824.33
100 kPa, x2 = 0.1968	813.06	802.22
100 kPa, x2 = 0.3006	790.36	779.88
100 kPa, x2 = 0.4029	769.73	759.54
100 kPa, x2 = 0.5017	751.19	741.34
100 kPa, x2 = 0.6008	733.91	724.36
100 kPa, x2 = 0.7023	717.52	708.18
100 kPa, x2 = 0.7977	703.14	694.03
100 kPa, x2 = 0.8986	688.99	680.16
100 kPa, x2 = 0.952	681.86	673.13
2000 kPa, x2 = 0.0524	850.2	839.05
2000 kPa, x2 = 0.1018	837.83	826.85
2000 kPa, x2 = 0.1968	815.38	804.68
2000 kPa, x2 = 0.3006	792.62	782.33
2000 kPa, x2 = 0.4029	771.9	761.96
2000 kPa, x2 = 0.5017	753.34	743.67
2000 kPa, x2 = 0.6008	736.05	726.67
2000 kPa, x2 = 0.7023	719.64	710.46
2000 kPa, x2 = 0.7977	705.19	696.31
2000 kPa, x2 = 0.8986	691.08	682.39
2000 kPa, x2 = 0.952	683.95	675.34
5000 kPa, x2 = 0.0524	853.75	842.87
5000 kPa, x2 = 0.1018	841.34	830.59
5000 kPa, x2 = 0.1968	818.82	808.31
5000 kPa, x2 = 0.3006	795.97	785.99
5000 kPa, x2 = 0.4029	775.25	765.53
5000 kPa, x2 = 0.5017	756.66	747.19
5000 kPa, x2 = 0.6008	739.33	730.09
5000 kPa, x2 = 0.7023	722.77	713.8
5000 kPa, x2 = 0.7977	708.3	699.58
5000 kPa, x2 = 0.8986	694.14	685.57
5000 kPa, x2 = 0.952	686.97	678.46
7000 kPa, x2 = 0.0524	856.02	845.3
7000 kPa, x2 = 0.1018	843.56	832.97
7000 kPa, x2 = 0.1968	820.99	810.78
7000 kPa, x2 = 0.3006	798.15	788.3
7000 kPa, x2 = 0.4029	777.41	767.84
7000 kPa, x2 = 0.5017	758.81	749.48
7000 kPa, x2 = 0.6008	741.44	732.35
7000 kPa, x2 = 0.7023	724.78	716.03
7000 kPa, x2 = 0.7977	710.27	701.8
7000 kPa, x2 = 0.8986	696.07	687.74
7000 kPa, x2 = 0.952	688.88	680.62
10000 kPa, x2 = 0.0524	859.35	848.77
10000 kPa, x2 = 0.1018	846.8	836.51
10000 kPa, x2 = 0.1968	824.17	814.23
10000 kPa, x2 = 0.3006	801.36	791.7
10000 kPa, x2 = 0.4029	780.55	771.16
10000 kPa, x2 = 0.5017	761.91	752.73
10000 kPa, x2 = 0.6008	744.48	735.56
10000 kPa, x2 = 0.7023	727.81	719.19
10000 kPa, x2 = 0.7977	713.22	704.84
10000 kPa, x2 = 0.8986	699	690.69
10000 kPa, x2 = 0.952	691.77	683.56
20000 kPa, x2 = 0.0524	869.52	859.69
20000 kPa, x2 = 0.1018	857	847.28
20000 kPa, x2 = 0.1968	834.1	824.81
20000 kPa, x2 = 0.3006	811.1	802.08
20000 kPa, x2 = 0.4029	790.07	781.34
20000 kPa, x2 = 0.5017	771.19	–
20000 kPa, x2 = 0.6008	753.6	–
20000 kPa, x2 = 0.7023	736.87	–
20000 kPa, x2 = 0.7977	722.07	–
20000 kPa, x2 = 0.8986	707.69	–
20000 kPa, x2 = 0.952	700.38	–
30000 kPa, x2 = 0.0524	878.79	–
30000 kPa, x2 = 0.1018	866.11	–
30000 kPa, x2 = 0.1968	843.05	–
30000 kPa, x2 = 0.3006	819.96	–
30000 kPa, x2 = 0.4029	798.75	–
30000 kPa, x2 = 0.5017	779.74	–
30000 kPa, x2 = 0.6008	761.98	–
30000 kPa, x2 = 0.7023	745.03	–
30000 kPa, x2 = 0.7977	730.14	–
30000 kPa, x2 = 0.8986	715.59	–
30000 kPa, x2 = 0.952	708.22	–
40000 kPa, x2 = 0.0524	887.22	–
40000 kPa, x2 = 0.1018	874.41	–
40000 kPa, x2 = 0.1968	851.38	–
40000 kPa, x2 = 0.3006	827.93	–
40000 kPa, x2 = 0.4029	806.62	–
40000 kPa, x2 = 0.5017	787.49	–
40000 kPa, x2 = 0.6008	769.55	–
40000 kPa, x2 = 0.7023	752.43	–
40000 kPa, x2 = 0.7977	737.42	–
40000 kPa, x2 = 0.8986	722.69	–
40000 kPa, x2 = 0.952	715.28	–
50000 kPa, x2 = 0.0524	894.96	–
50000 kPa, x2 = 0.1018	882.16	–
50000 kPa, x2 = 0.1968	858.96	–
50000 kPa, x2 = 0.3006	835.46	–
50000 kPa, x2 = 0.4029	813.98	–
50000 kPa, x2 = 0.5017	794.72	–
50000 kPa, x2 = 0.6008	776.69	–
50000 kPa, x2 = 0.7023	759.44	–
50000 kPa, x2 = 0.7977	744.29	–
50000 kPa, x2 = 0.8986	729.42	–
50000 kPa, x2 = 0.952	721.96	–
60000 kPa, x2 = 0.0524	902.31	–
60000 kPa, x2 = 0.1018	889.34	–
60000 kPa, x2 = 0.1968	866.09	–
60000 kPa, x2 = 0.3006	842.43	–
60000 kPa, x2 = 0.4029	820.82	–
60000 kPa, x2 = 0.5017	801.47	–
60000 kPa, x2 = 0.6008	783.34	–
60000 kPa, x2 = 0.7023	766	–
60000 kPa, x2 = 0.7977	750.71	–
60000 kPa, x2 = 0.8986	735.66	–
60000 kPa, x2 = 0.952	728.17	–
65000 kPa, x2 = 0.0524	905.77	–
65000 kPa, x2 = 0.1018	892.87	–
65000 kPa, x2 = 0.1968	869.57	–
65000 kPa, x2 = 0.3006	845.82	–
65000 kPa, x2 = 0.4029	824.21	–
65000 kPa, x2 = 0.5017	804.75	–
65000 kPa, x2 = 0.6008	786.56	–
65000 kPa, x2 = 0.7023	769.12	–
65000 kPa, x2 = 0.7977	753.9	–
65000 kPa, x2 = 0.8986	738.65	–
65000 kPa, x2 = 0.952	731.1	–
